Source: the supplement of paper PMC10307832

What was measured:
Test in all cases: relative viability (nuclei count vs DMSO), 5 days (fraction); higher = more cells survive
Sunitinib + Luminespib = compound: CCN(CC)CCNC(=O)c1c(C)[nH]c(/C=C2\C(=O)Nc3ccc(F)cc32)c1C [Sunitinib] + CCNC(=O)c1noc(-c2cc(C(C)C)c(O)cc2O)c1-c1ccc(CN2CCOCC2)cc1 [Luminespib] (partner 0.01 µM)
In short: (§1)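 Nuclei were stained with Hoechst during a one-step fixation (final 0.05% Triton X-100, 1% formaldehyde, 1 ug/ml Hoechst) carried out 5 days after dosing, then counted on 4× images. The cells, lung cancer lines in 1536-well plates, had been dosed by pin tool the day after seeding with one drug alone or a fixed anchor-drug dose plus five library-drug doses (not always all listed) in √10 steps. Relative viability is the nuclei count in treated wells divided by that in vehicle wells, and each value is the median of duplicate plates.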

Sunitinib + Foretinib = compound: CCN(CC)CCNC(=O)c1c(C)[nH]c(/C=C2\C(=O)Nc3ccc(F)cc32)c1C [Sunitinib] + COc1cc2c(Oc3ccc(NC(=O)C4(C(=O)Nc5ccc(F)cc5)CC4)cc3F)ccnc2cc1OCCCN1CCOCC1 [Foretinib] (partner 0.25 µM)
In short: as §1

Sunitinib + Linsitinib = compound: CCN(CC)CCNC(=O)c1c(C)[nH]c(/C=C2\C(=O)Nc3ccc(F)cc32)c1C [Sunitinib] + C[C@]1(O)C[C@@H](c2nc(-c3ccc4ccc(-c5ccccc5)nc4c3)c3c(N)nccn32)C1 [Linsitinib] (partner 1 µM)
In short: as §1

Sunitinib + Navitoclax = compound: CCN(CC)CCNC(=O)c1c(C)[nH]c(/C=C2\C(=O)Nc3ccc(F)cc32)c1C [Sunitinib] + CC1(C)CCC(c2ccc(Cl)cc2)=C(CN2CCN(c3ccc(C(=O)NS(=O)(=O)c4ccc(N[C@H](CCN5CCOCC5)CSc5ccccc5)c(S(=O)(=O)C(F)(F)F)c4)cc3)CC2)C1 [Navitoclax] (partner 0.5 µM)
In short: as §1

| Cell Line | relative viability (Sunitinib + Luminespib; first compound 0.02 µM) | relative viability (Sunitinib + Luminespib; first compound 0.06325 µM) | relative viability (Sunitinib + Luminespib; first compound 0.2 µM) | relative viability (Sunitinib + Luminespib; first compound 0.6325 µM) | relative viability (Sunitinib + Luminespib; first compound 2 µM) | relative viability (Sunitinib + Foretinib; first compound 0.02 µM) | relative viability (Sunitinib + Foretinib; first compound 0.06325 µM) | relative viability (Sunitinib + Foretinib; first compound 0.2 µM) | relative viability (Sunitinib + Foretinib; first compound 0.6325 µM) | relative viability (Sunitinib + Foretinib; first compound 2 µM) | relative viability (Sunitinib + Linsitinib; first compound 0.02 µM) | relative viability (Sunitinib + Linsitinib; first compound 0.06325 µM) | relative viability (Sunitinib + Linsitinib; first compound 0.2 µM) | relative viability (Sunitinib + Linsitinib; first compound 0.6325 µM) | relative viability (Sunitinib + Linsitinib; first compound 2 µM) | relative viability (Sunitinib + Navitoclax; first compound 0.06325 µM) | relative viability (Sunitinib + Navitoclax; first compound 0.2 µM) | relative viability (Sunitinib + Navitoclax; first compound 0.6325 µM) | relative viability (Sunitinib + Navitoclax; first compound 2 µM) | relative viability (Sunitinib + Navitoclax; first compound 0.02 µM) |
| --- | --- | --- | --- | --- | --- | --- | --- | --- | --- | --- | --- | --- | --- | --- | --- | --- | --- | --- | --- | --- |
| NCI-H2023 | 0.602 | 0.671 | 1.08 | 0.765 | 0.611 | 0.739 | 0.887 | 0.981 | 0.659 | 0.78 | 0.709 | 0.594 | 0.754 | 0.788 | 0.582 | 1.05 | 1.11 | 1.06 | 0.975 | – |
| NCI-H2085 | 0.494 | 0.399 | 0.489 | 0.46 | 0.377 | 0.851 | – | 1.02 | 0.957 | 0.935 | – | 0.923 | 0.939 | 0.945 | 1.02 | 1.19 | 1.23 | 1.18 | 1.28 | – |
| NCI-H2087 | 0.195 | 0.172 | 0.166 | 0.158 | 0.174 | 1.12 | 1.28 | 1.15 | 1.07 | 1.11 | – | 1.01 | 0.938 | – | 0.889 | 0.99 | 1.14 | 1.01 | 0.969 | 0.976 |
| NCI-H2126 | 0.875 | 0.918 | 0.897 | 0.985 | 0.866 | 1.13 | 1.31 | 1.34 | 1.47 | 1.31 | 0.719 | 0.695 | 0.74 | 0.759 | 0.717 | 0.865 | 0.904 | 0.871 | 0.798 | 0.833 |
| NCI-H2228 | 0.138 | 0.145 | 0.148 | 0.177 | 0.114 | 0.844 | 0.833 | 0.963 | 0.842 | 0.657 | 0.611 | 0.584 | 0.841 | 0.808 | 0.349 | 0.792 | 1 | 0.96 | 0.524 | 0.87 |
| NCI-H2347 | 0.486 | 0.355 | 0.377 | 0.238 | 0.558 | 0.704 | 0.708 | 1.03 | – | 1.36 | 0.93 | 0.991 | 1.11 | 0.991 | 0.978 | 0.825 | 0.836 | 0.817 | 0.818 | 0.888 |
| NCI-H2405 | 0.672 | 0.616 | 0.854 | 0.947 | 0.722 | 1.07 | 1.06 | 1.09 | 1.05 | 1.11 | – | 1.02 | 0.976 | 1.08 | 0.917 | 0.892 | 0.909 | 1.14 | 0.977 | 0.985 |
